# From patent US11123340B2, “Small-molecule UT-A-selective urea transport inhibitors” (The Regents of the University of California, priority 2014, dated 2021)
# What was measured:
# [1] = system: MDCK cells; experiment: Cell toxicity, Alamar blue assay; format: cell-based, canine; details: 24 h, up to 25 μM
# Description: MDCK cells on black 96-well Costar microplates with clear plastic bottoms were cultured for 24 h at 37° C. and incubated with test compounds (0 to 25 μM) for 24 h. Cell viability was assayed using AlamarBlue (Pierce, Rockford, Ill.) in which the reagent was added to each well, incubated for 30 min, and absorbance measured at 590 nm. For short-circuit current measurement, snapwell inserts containing MDCK cells were mounted on Ussing chambers. Test compounds (20 μM) were incubated with MDCK cells at both apical and basolateral sides for 10 min at 37° C. prior to addition of 20 μM forskolin and then 100 μM ATP. The apical and basolateral chambers contained identical solutions: 120 mM NaCl, 5 mM KCl, 1 mM MgCl2, 1 mM CaCl2, 5 mM HEPES, 25 mM NaHCO3 and 10 mM glucose. Solutions were bubbled with 5% CO2/95% O2 and maintained at 37° C. […]
# Compound toxicity was evaluated by compound incubation for 24 h with MDCK cell cultures followed by Alamar blue assay. […] To assess potential ion channel off-target effects, short-circuit current was measured in MDCK cells in response to cAMP (forskolin) and calcium (ATP) agonists (FIG. 5C, right), which depends on the actions of multiple anion (CFTR, calcium-activated chloride channels) and cation (K^+, Na^+) channels.
# [2] = In vitro metabolic stability in rat hepatic microsomes; format: in vitro ADME; details: at 60 min, 5 μM, NADPH
# Description: As described (see, e.g., Snyder et al. (2011) J Med Chem. 54, 5468-5477), compounds (each 5 μM) were incubated for specified times at 37° C. with rat liver microsomes (1 mg protein/mL; Sigma-Aldrich, St. Louis, Mo.) in potassium phosphate buffer (100 mM) containing 1 mM NADPH. The mixture was then chilled on ice, and 0.5 mL of ice-cold EtOAc was added. Samples were centrifuged for 15 min at 3,000 rpm, the supernatant evaporated to dryness, and the residue was dissolved in 100 μl mobile phase (acetonitrile: water [3:1], containing 0.1% formic acid) for LC/MS. Reverse-phase HPLC separations were carried out using a XTERRA MS C18 column (2.1 mm×100 mm, 3.5 m) equipped with a solvent delivery system (Waters model 2695, Milford, Mass.). The solvent system consisted of a linear gradient from 5 to 95% acetonitrile containing 0.1% formic acid, run over 16 min (0.2 mL/min flow rate).
# In vitro metabolic stability was measured by LC/MS after incubation with rat hepatic microsomes and NADPH.
metabolism [2] [%],SMILES,toxicity [1]
~50,"COc1ccc(C)cc1S(=O)(=O)Nc1ccc(Cl)c(N2CCCS2(=O)=O)c1 [UTA1inh-F11, N-[4-Chloro-3-(1,1-dioxido-1,2-thiazolidin-2-yl)phenyl]-2-methoxy-5-methylbenzene-sulfonamide]",little toxicity
~50,"CC(=O)Nc1ccc(-c2csc(-c3c[nH]c4ccccc34)n2)cc1 [UTA1inh-E02, N-(4-(2-(1H-indol-3-yl)thiazol-4-yl)phenyl)acetamide]",little toxicity
